From ChEMBL document CHEMBL1201862, “PubChem BioAssay data set” (2004)
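48-hour exposure; five concentrations; linearly interpolated endpoints. GI50: concentration for 50% inhibition of growth.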 Activity calls are given as the source filed them. Rule as the data show it: active = GI50 up to about 1.1 µM and inactive = higher.

Legend:
Experiment in all cases: DTP human tumour cell line panel, 48 h
[1] = tested on: A498
[2] = tested on: CAKI-1
[3] = tested on: SK-OV-3
[4] = tested on: K562
[5] = tested on: M14
[6] = tested on: HL-60
[7] = tested on: KM12
[8] = tested on: UO-31
[9] = tested on: 786-0
[10] = tested on: OVCAR-4
[11] = tested on: HCC 2998
[12] = tested on: HCT-15
[13] = tested on: RXF 393
[14] = tested on: SK-MEL-5
[15] = tested on: NCI-H522
[16] = tested on: RPMI-8226

Compound | GI50 [1] | GI50 [2] | GI50 [3] | GI50 [4] | GI50 [5] | GI50 [6] | GI50 [7] | GI50 [8] | GI50 [9] | GI50 [10] | GI50 [11] | GI50 [12] [µM] | GI50 [13] | GI50 [14] | GI50 [15] | GI50 [16]
CN(C)NC1=C([N+](=O)[O-])C=NN(c2ccccc2)C1 | 20.9 µM (inactive) | 1.95 µM (inactive) | 1.97 µM (inactive) | 2.44 µM (inactive) | 1.82 µM (inactive) | 2.04 µM (inactive) | 2.52 µM (inactive) | 1.79 µM (inactive) | 1.77 µM (inactive) | 1.66 µM (inactive) | 1.79 µM (inactive) | 1.55 | 1.93 µM (inactive) | 2.56 µM (inactive) | 0.177 µM (active) | 
O=C(Nc1ccc(Br)cc1)C(=O)C(C(=O)c1ccccc1F)C1OC(=O)c2ccccc21 (stereo unspecified) | 40.1 µM (inactive) | 37.8 µM (inactive) | 27.5 µM (inactive) | 31 µM (inactive) | 16.5 µM (inactive) | 23.7 µM (inactive) | 31.8 µM (inactive) | 22.3 µM (inactive) | 22.5 µM (inactive) | 24.7 µM (inactive) | 16.9 µM (inactive) | 28.8 |  | 27.2 µM (inactive) | 20.7 µM (inactive) | 17.8 µM (inactive)
COc1ccc(N(C)Sc2ccccc2)cc1 |  |  | > 100 µM (inactive) | 41.4 µM (inactive) | 52.5 µM (inactive) | 15.1 µM (inactive) | 56.6 µM (inactive) | 34.8 µM (inactive) | 16.9 µM (inactive) |  | > 100 µM (inactive) | 38.1 | 19.9 µM (inactive) | 47.4 µM (inactive) | 38.8 µM (inactive) | 36.1 µM (inactive)
COc1ccc(OC)c(NC(=O)CCC/C(CC(=O)c2ccc(O)c(OC)c2)=N\NC(=O)C[N+](C)(C)C)c1 | > 100 µM (inactive) | > 100 µM (inactive) | > 100 µM (inactive) | > 100 µM (inactive) | > 100 µM (inactive) | > 100 µM (inactive) | > 100 µM (inactive) | > 100 µM (inactive) | > 100 µM (inactive) | > 100 µM (inactive) | > 100 µM (inactive) | > 100 |  | > 100 µM (inactive) | > 100 µM (inactive) | 79.3 µM (inactive)
COCOCCCCCO[Si](C)(C)C(C)(C)C | 29.4 µM (inactive) |  | 40.6 µM (inactive) | 26.4 µM (inactive) | 19 µM (inactive) | 7.1 µM (inactive) | 23.2 µM (inactive) | 20.5 µM (inactive) | 14.4 µM (inactive) |  | 17.7 µM (inactive) | 17.7 | 16.6 µM (inactive) | 16.5 µM (inactive) | 13.7 µM (inactive) | 16.5 µM (inactive)
O=C(c1ccc(Cl)cc1)c1ccc(OCCCOc2ccc(C(=O)c3ccc(Cl)cc3)cc2)cc1 |  | > 100 µM (inactive) | > 100 µM (inactive) | > 100 µM (inactive) | > 100 µM (inactive) | > 100 µM (inactive) | > 100 µM (inactive) |  | > 100 µM (inactive) | > 100 µM (inactive) | > 100 µM (inactive) | > 100 | 88.3 µM (inactive) | > 100 µM (inactive) | > 100 µM (inactive) | > 100 µM (inactive)
C#Cc1cccc(N2C(=O)CC(=P(c3ccccc3)(c3ccccc3)c3ccccc3)C2=O)c1 | > 100 µM (inactive) | > 100 µM (inactive) | > 100 µM (inactive) | 35.4 µM (inactive) | 47.6 µM (inactive) | 15.1 µM (inactive) |  | > 100 µM (inactive) | 24.5 µM (inactive) | 69.2 µM (inactive) | 70.8 µM (inactive) |  |  | 25.6 µM (inactive) | 25 µM (inactive) | 6.4 µM (inactive)
CC1(Cl)CC2OC3(Br)C=CC(C)(O)C2(CC1Br)C3(C)C (stereo unspecified) | > 100 µM (inactive) | > 100 µM (inactive) | > 100 µM (inactive) | > 100 µM (inactive) | > 100 µM (inactive) | 51.1 µM (inactive) | > 100 µM (inactive) | > 100 µM (inactive) | > 100 µM (inactive) | > 100 µM (inactive) | > 100 µM (inactive) | > 100 | > 100 µM (inactive) | > 100 µM (inactive) |  | > 100 µM (inactive)
COc1ccc(C(=O)NCCC2=CCCCC2)cc1 | 85.7 µM (inactive) | > 100 µM (inactive) |  | > 100 µM (inactive) |  |  | > 100 µM (inactive) |  | > 100 µM (inactive) | > 100 µM (inactive) |  | > 100 | > 100 µM (inactive) | > 100 µM (inactive) |  | > 100 µM (inactive)
CC12N=NN(c3ccc([N+](=O)[O-])cc3)C1(O)c1ccccc1C2=O (stereo unspecified) |  |  | > 100 µM (inactive) |  | > 100 µM (inactive) | > 100 µM (inactive) | > 100 µM (inactive) | > 100 µM (inactive) | > 100 µM (inactive) |  | > 100 µM (inactive) | > 100 | > 100 µM (inactive) | > 100 µM (inactive) | > 100 µM (inactive) | > 100 µM (inactive)
COc1ccc(O)c(C(=O)CCC(=O)O)c1 | > 100 µM (inactive) |  | > 100 µM (inactive) | > 100 µM (inactive) | > 10 µM (inactive) | > 100 µM (inactive) | > 100 µM (inactive) | > 100 µM (inactive) | > 100 µM (inactive) | > 100 µM (inactive) | > 100 µM (inactive) | > 100 | > 100 µM (inactive) | > 100 µM (inactive) | > 100 µM (inactive) | > 100 µM (inactive)
CCn1c(CSc2nc(-c3ccccc3)c(-c3ccccc3)[nH]2)n[nH]c1=S | > 100 µM (inactive) |  | > 100 µM (inactive) |  | > 100 µM (inactive) | > 100 µM (inactive) | 51.4 µM (inactive) | > 100 µM (inactive) | > 100 µM (inactive) | > 100 µM (inactive) | 0.0243 µM (active) | > 100 |  | > 100 µM (inactive) | > 100 µM (inactive) | > 100 µM (inactive)
CN(C)CCNC(=O)c1cccc2c1nc(-c1ccccn1)c1ccccc12 | 13.6 µM (inactive) | 18.1 µM (inactive) | 17.4 µM (inactive) | 16.9 µM (inactive) | 15.8 µM (inactive) | 16.4 µM (inactive) | 28.3 µM (inactive) | 10.4 µM (inactive) | 18.9 µM (inactive) | 17.3 µM (inactive) | 15.7 µM (inactive) | 13.8 | 14.6 µM (inactive) | 15.2 µM (inactive) |  | 
CC1(c2ccccc2)CC12C(=O)NC(=O)NC2=O (stereo unspecified) |  | > 100 µM (inactive) | > 100 µM (inactive) | > 100 µM (inactive) | > 100 µM (inactive) | > 100 µM (inactive) | > 100 µM (inactive) | > 100 µM (inactive) | > 100 µM (inactive) | > 100 µM (inactive) | > 100 µM (inactive) | > 100 |  | > 100 µM (inactive) | > 100 µM (inactive) | > 100 µM (inactive)
[O-][S+]1CSCS1 (stereo unspecified) | > 100 µM (inactive) | > 100 µM (inactive) | > 100 µM (inactive) | > 100 µM (inactive) | > 100 µM (inactive) | > 100 µM (inactive) | > 100 µM (inactive) | > 100 µM (inactive) | > 100 µM (inactive) | > 100 µM (inactive) | > 100 µM (inactive) |  | > 100 µM (inactive) | > 100 µM (inactive) | > 100 µM (inactive) | 
